Measured values taken from PubChem BioAssay (NCI).
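Dose response: 5 concentrations. Exposure: 48 h. Format: 96-well plates. Endpoint: linear interpolation; highest concentration if not reached. GI50 is the concentration that inhibits growth by half. TGI: total growth inhibition.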

Tests used:
Test in all cases: DTP human tumour cell line panel, 48 h
[1] = test system: SW-620 colon
[2] = test system: NCI/ADR-RES ovarian
[3] = test system: EKVX NSCLC
[4] = test system: MDA-MB-231 breast
[5] = test system: COLO 205 colon
[6] = test system: SNB-19 CNS
[7] = test system: HCT-116 colon
[8] = test system: HCT-15 colon
[9] = test system: T-47D breast
[10] = test system: TK-10 renal

Structure (SMILES)	GI50 [1] [µM]	TGI [1] [µM]	GI50 [2] [µM]	TGI [2] [µM]	GI50 [3] [µM]	TGI [3] [µM]	GI50 [4] [µM]	TGI [4] [µM]	GI50 [5] [µM]	TGI [5] [µM]	GI50 [6] [µM]	TGI [6] [µM]	GI50 [7] [µM]	TGI [7] [µM]	GI50 [8] [µM]	TGI [8] [µM]	GI50 [9] [µM]	TGI [9] [µM]	GI50 [10] [µM]	TGI [10] [µM]
COc1ccc(NC2=C(Sc3nc(C)cc(C)n3)C(=O)N(Cc3ccccc3)C2=O)cc1Cl	> 160	> 160	> 160	> 160	157	> 160	127	> 160	> 160	> 160	> 160	> 160	39	> 160	> 160	> 160	25.1	> 160	> 160	> 160
CC[C@@]1(O)C(=O)NCc2c1cc1n(c2=O)Cc2cc3cc4c(cc3nc2-1)OCO4	0.352	> 26.3	0.236	1.56	12.9	> 87.1	> 48.2	> 100	22.7	> 100	0.379	> 61.5	0.883	46	8.58	> 100	0.842	> 27.1	69.9	> 100
N#Cc1c(NC(=O)c2cccs2)[n+]([O-])c2ccccc2[n+]1[O-]	> 100	> 100	> 100	> 100	93.8	> 100	> 100	> 100	> 100	> 100	> 100	> 100	> 100	> 100	64.1	> 100	89.3	> 100	> 100	> 100
N#Cc1nc(-c2cccc(Br)c2)cc(-c2ccc(Nc3nc(N4CCCCC4)nc(N4CCCCC4)n3)cc2)c1N	1.53	3.48	3.33	> 100	2.12	5.02	1.56	3.21	1.99	4.64	6.41	> 100	1.55	3.19	1.72	5.53	1.3	4.08	1.8	3.47
O=C(O)CC(Cc1ccc2c(c1)OCO2)C(=O)O (stereo not given)	–	> 100	–	> 100	–	> 100	–	> 100	–	> 100	–	> 100	–	> 100	–	> 100	–	> 100	–	> 100
COc1cc(C)cc2c1OC(c1ccccc1)CC2=O (stereo not given)	> 100	> 100	> 100	> 100	> 100	> 100	> 100	> 100	> 100	> 100	> 100	> 100	> 100	> 100	> 100	> 100	> 100	> 100	> 100	> 100
CCN(CC)c1ccc(/C=N/NC(=O)c2ccc(Nc3ccnc(C(F)(F)F)c3)cc2)c(O)c1	0.404	> 64.7	0.598	17.6	0.167	1.76	0.396	3.97	0.281	1.09	0.39	> 73.6	0.141	1.34	0.0666	2.55	0.332	3.7	0.42	> 100
Cc1c(C(=O)/C=C/c2ccc(O)cc2)nnn1-c1ccnc2c(C(F)(F)F)cccc12	27.1	> 100	13.9	> 100	39	> 100	21.7	> 100	5.68	34.8	24.9	> 100	6.66	> 100	15.1	> 100	5.53	> 100	9.28	73.4
O=c1cc/c(=N\Nc2ccccc2)c(=O)/c1=N/Nc1ccccc1	> 50	> 50	> 50	> 50	> 50	> 50	> 50	> 50	> 50	> 50	> 50	> 50	> 50	> 50	> 50	> 50	> 50	> 50	> 50	> 50
COc1cc2c(cc1OCCCCCOc1cc(-c3ccc(F)cc3)nc(C)n1)N=C[C@@H]1CCCN1C2=O	> 32.1	> 87.1	> 100	> 100	> 50.1	> 81	> 39.5	> 65.5	4.32	7.64	> 46.2	> 100	> 52.9	98.4	> 41.9	> 77.9	6.27	59.6	> 49.9	> 75.3
Cc1cccc2c3c(sc12)C(c1ccc(Cl)cc1)C(C#N)=C(/N=C/c1ccc(Cl)cc1)O3 (stereo not given)	0.434	> 100	0.307	4.27	0.565	> 100	0.754	20.6	0.456	–	0.457	24.3	0.402	> 100	0.392	> 100	0.625	> 100	12.2	51.3
Cc1cccc(C(C)O)n1 (stereo not given)	–	> 100	–	> 100	–	> 100	–	> 100	–	> 100	–	> 100	–	> 100	–	> 100	–	> 100	–	> 100
c1ccc(-c2nc(Nc3ccc(-c4nc5ccccc5[nH]4)cc3)nc(N3CCOCC3)n2)cc1	0.627	2.17	1.93	5.53	1.59	3.42	1.29	3.48	1.41	3.13	–	–	0.394	1.62	–	–	1.62	3.82	2.15	3.76
